Patent publication US20200190081A1, “META SUBSTITUTED PHENYLPYRAZOLO- AND PHENYLPYRROLO- PYRIDAZINE DERIVATIVES HAVING MULTIMODAL ACTIVITY AGAINST PAIN” (ESTEVE PHARMACEUTICALS, S.A., priority 2016, published 2020)

Experiments:
[1] = target: Human norepinephrine transporter (NET) (Homo sapiens, UniProt P23975); assay: Binding assay to human norepinephrine transporter (NET), [3H]-Nisoxetin; conditions: human NET enriched membranes, 5 nM [3H]-Nisoxetin
Procedure: Binding Assay to Human Norepinephrine Transporter (NET).
Human norepinephrine transporter (NET) enriched membranes (5 μg) were incubated with 5 nM of radiolabeled [3H]-Nisoxetin in assay buffer containing 50 mM Tris-HCl, 120 mM NaCl, 5 mM KCl, pH 7.4. NSB (non specific binding) was measured by adding 10 μM of desipramine. The binding of the test compound was measured at five different concentrations. After 60 min incubation at 4° C., binding reaction was terminated by filtering through Multiscreen GF/C (Millipore) presoaked in 0.5% polyethyleneimine in Vacuum Manifold Station, followed by 3 washes with ice-cold filtration buffer containing 50 mM Tris-HCl, 0.9% NaCl, pH 7.4. Filter plates were dried at 60° C. for 1 hour and 30 μl of scintillation cocktail were added to each well before radioactivity reading. Readings were performed in a Trilux 1450 Microbeta radioactive counter (Perkin Elmer).

[2] = target: Human α2δ-1 Subunit of Cav2.2 Calcium Channel (Homo sapiens, UniProt P54289); assay: Human α2δ-1 subunit of Cav2.2 calcium channel assay, [3H]-Gabapentin binding; conditions: human α2δ-1 enriched membranes, 15 nM [3H]-Gabapentin
Procedure: Human α2δ-1 Subunit of Cav2.2 Calcium Channel Assay
Human α2δ-1 enriched membranes (2.5 μg) were incubated with 15 nM of radiolabeled [3H]-Gabapentin in assay buffer containing Hepes-KOH 10 mM, pH 7.4. NSB (non specific binding) was measured by adding 10 μM pregabalin. The binding of the test compound was measured at five different concentrations. After 60 min incubation at 27° C., binding reaction was terminated by filtering through Multiscreen GF/C (Millipore) presoaked in 0.5% polyethyleneimine in Vacuum Manifold Station, followed by 3 washes with ice-cold filtration buffer containing 50 mM Tris-HCl, pH 7.4. Filter plates were dried at 60° C. for 1 hour and 30 μl of scintillation cocktail were added to each well before radioactivity reading. Readings were performed in a Trilux 1450 Microbeta radioactive counter (Perkin Elmer).

Human norepinephrine transporter (NET), sequence (P23975 whole entry): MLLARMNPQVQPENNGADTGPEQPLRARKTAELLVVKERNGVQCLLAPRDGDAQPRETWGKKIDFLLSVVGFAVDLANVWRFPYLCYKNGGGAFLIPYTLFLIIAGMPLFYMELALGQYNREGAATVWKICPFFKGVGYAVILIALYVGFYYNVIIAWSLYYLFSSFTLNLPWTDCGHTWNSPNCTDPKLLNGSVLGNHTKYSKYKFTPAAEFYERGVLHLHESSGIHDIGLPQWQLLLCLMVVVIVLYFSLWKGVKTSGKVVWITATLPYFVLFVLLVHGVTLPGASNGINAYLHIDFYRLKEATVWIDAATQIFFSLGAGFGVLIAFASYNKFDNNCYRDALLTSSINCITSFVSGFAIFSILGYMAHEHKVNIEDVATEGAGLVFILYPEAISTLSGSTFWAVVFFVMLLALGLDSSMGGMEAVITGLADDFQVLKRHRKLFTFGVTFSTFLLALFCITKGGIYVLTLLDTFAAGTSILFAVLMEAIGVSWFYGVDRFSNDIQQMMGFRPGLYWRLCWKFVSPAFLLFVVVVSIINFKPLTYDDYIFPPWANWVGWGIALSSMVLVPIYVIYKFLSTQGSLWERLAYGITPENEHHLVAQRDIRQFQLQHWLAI
Human α2δ-1 Subunit of Cav2.2 Calcium Channel, sequence (P54289 25-1103): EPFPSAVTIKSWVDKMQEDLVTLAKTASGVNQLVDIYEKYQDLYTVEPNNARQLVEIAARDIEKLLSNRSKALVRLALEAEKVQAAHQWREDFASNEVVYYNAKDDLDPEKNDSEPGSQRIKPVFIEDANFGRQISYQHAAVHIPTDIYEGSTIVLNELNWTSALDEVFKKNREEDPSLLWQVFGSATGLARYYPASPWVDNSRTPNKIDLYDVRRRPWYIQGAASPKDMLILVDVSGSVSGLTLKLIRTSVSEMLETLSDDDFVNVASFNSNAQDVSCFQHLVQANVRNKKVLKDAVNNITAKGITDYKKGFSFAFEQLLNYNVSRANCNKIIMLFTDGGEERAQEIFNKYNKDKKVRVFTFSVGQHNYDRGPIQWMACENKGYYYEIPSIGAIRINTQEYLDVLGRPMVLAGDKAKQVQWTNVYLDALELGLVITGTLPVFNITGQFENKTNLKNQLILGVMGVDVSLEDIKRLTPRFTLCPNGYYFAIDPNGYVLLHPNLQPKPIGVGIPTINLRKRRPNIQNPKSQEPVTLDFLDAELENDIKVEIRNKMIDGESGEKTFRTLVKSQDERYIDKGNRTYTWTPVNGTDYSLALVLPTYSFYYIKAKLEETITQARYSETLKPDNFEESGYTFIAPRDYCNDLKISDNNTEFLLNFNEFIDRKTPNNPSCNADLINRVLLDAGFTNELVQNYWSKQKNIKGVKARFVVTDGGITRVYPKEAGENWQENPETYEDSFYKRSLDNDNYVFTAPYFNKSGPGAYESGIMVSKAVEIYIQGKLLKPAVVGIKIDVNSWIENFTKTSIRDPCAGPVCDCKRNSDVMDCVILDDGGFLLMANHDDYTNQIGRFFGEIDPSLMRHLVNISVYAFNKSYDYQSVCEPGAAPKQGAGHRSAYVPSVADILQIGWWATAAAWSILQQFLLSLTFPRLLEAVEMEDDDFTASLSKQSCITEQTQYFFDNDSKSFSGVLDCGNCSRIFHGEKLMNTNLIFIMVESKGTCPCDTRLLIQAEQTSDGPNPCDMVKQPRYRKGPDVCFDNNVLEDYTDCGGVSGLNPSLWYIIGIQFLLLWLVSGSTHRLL

CNCC[C@@H](Oc1cccc(-n2c(C)c3c(C)nnc(C)c3c2C)c1)c1cccc(F)c1 [Example 69, (R)-3-(3-fluorophenyl)-N-methyl-3-(3-(1,4,5,7-tetramethyl-6H-pyrrolo[3,4-d]pyridazin-6-yl)phenoxy)propan-1-amine]
Ki [1]: 100 to 500 nM | Ki [2]: < 500 nM

Cc1nnc(N(C)C)c2nn(-c3cccc(OC(CCNCCF)c4ccccc4)c3)c(C)c12 (centres unmarked) [Example 54, 2-(3-(3-((2-fluoroethyl)amino)-1-phenylpropoxy)phenyl)-N,N,3,4-tetramethyl-2H-pyrazolo[3,4-d]pyridazin-7-amine]
Ki [1]: 100 to 500 nM | Ki [2]: 500 to 5000 nM

CNCC(Oc1cccc(-n2nc3c(N(C)C)nnc(C)c3c2C)c1)c1cccs1 (centres unmarked) [Example 40, N,N,3,4-tetramethyl-2-(3-(2-(methylamino)-1-(thiophen-2-yl)ethoxy)phenyl)-2H-pyrazolo[3,4-d]pyridazin-7-amine]
Ki [1]: 500 to 1000 nM | Ki [2]: 500 to 5000 nM

CNCCC(Oc1cccc(-n2nc3c(N(C)C)nnc(C)c3c2C)c1)c1cccc(OC)c1 (centres unmarked) [Example 39, 2-(3-(1-(3-methoxyphenyl)-3-(methylamino)propoxy)phenyl)-N,N,3,4-tetramethyl-2H-pyrazolo[3,4-d]pyridazin-7-amine]
Ki [1]: < 100 nM | Ki [2]: 500 to 5000 nM

Cc1nnc(N(C)C)c2nn(-c3cccc(O[C@@H](c4ccccc4)[C@@H]4CNCCO4)c3)c(C)c12 (racemic) [Example 13, N,N,3,4-tetramethyl-2-(3-((S)-((S)-morpholin-2-yl)(phenyl)methoxy)phenyl)-2H-pyrazolo[3,4-d]pyridazin-7-amine]
Ki [1]: 500 to 1000 nM | Ki [2]: 500 to 5000 nM

Cc1nnc(N(C)C)c2nn(-c3cccc(OC(CN(C)C)c4ccccc4)c3)c(C)c12 (centres unmarked) [Example 37, 2-(3-(2-(dimethylamino)-1-phenylethoxy)phenyl)-N,N,3,4-tetramethyl-2H-pyrazolo[3,4-d]pyridazin-7-amine]
Ki [1]: 100 to 500 nM | Ki [2]: 500 to 5000 nM

CNC[C@H](Oc1cccc(-n2nc3c(N(C)C)nnc(C)c3c2C)c1)c1ccccc1 [Example 60, (R)-N,N,3,4-Tetramethyl-2-(3-(2-(methylamino)-1-phenylethoxy)phenyl)-2H-pyrazolo[3,4-d]pyridazin-7-amine]
Ki [1]: 100 to 500 nM | Ki [2]: 500 to 5000 nM

CNCCC(Oc1cccc(-n2nc3c(N)nnc(C)c3c2C)c1)c1ccccc1 (centres unmarked) [Example 27, 3,4-dimethyl-2-(3-(3-(methylamino)-1-phenylpropoxy)phenyl)-2H-pyrazolo[3,4-d]pyridazin-7-amine]
Ki [1]: < 100 nM | Ki [2]: 500 to 5000 nM

CNCCC(Oc1cccc(-n2nc3c(N(C)C)nnc(C)c3c2C)c1)c1cccs1 (centres unmarked) [Example 51, N,N,3,4-Tetramethyl-2-(3-(3-(methylamino)-1-(thiophen-2-yl)propoxy)phenyl)-2H-pyrazolo[3,4-d]pyridazin-7-amine]
Ki [1]: < 100 nM | Ki [2]: 500 to 5000 nM

Cc1nnc(N(C)C)c2nn(-c3cccc(OC(CCN(C)C)c4ccccc4)c3)c(C)c12 (centres unmarked) [Example 2, 2-(3-(3-(dimethylamino)-1-phenylpropoxy)phenyl)-N,N,3,4-tetramethyl-2H-pyrazolo[3,4-d]pyridazin-7-amine]
Ki [1]: 100 to 500 nM | Ki [2]: 500 to 5000 nM

Cc1nnc(N(C)C)c2nn(-c3cccc(OCCC(N)c4ccccc4)c3)c(C)c12 (centres unmarked) [Example 14, 2-(3-(3-amino-3-phenylpropoxy)phenyl)-N,N,3,4-tetramethyl-2H-pyrazolo[3,4-d]pyridazin-7-amine]
Ki [1]: 100 to 500 nM | Ki [2]: 500 to 5000 nM

CNCCC(Oc1cccc(-n2nc3c(N(C)C)nnc(C)c3c2C)c1)c1ccccn1 (centres unmarked) [Example 9, N,N,3,4-tetramethyl-2-(3-(3-(methylamino)-1-(pyridin-2-yl)propoxy)phenyl)-2H-pyrazolo[3,4-d]pyridazin-7-amine]
Ki [1]: 100 to 500 nM | Ki [2]: 500 to 5000 nM

CNCCC(Oc1cccc(-n2nc3c(N(C)C)nnc(C)c3c2C)c1)c1ccccc1OC (centres unmarked) [Example 36, 2-(3-(1-(2-methoxyphenyl)-3-(methylamino)propoxy)phenyl)-N,N,3,4-tetramethyl-2H-pyrazolo[3,4-d]pyridazin-7-amine]
Ki [1]: 100 to 500 nM | Ki [2]: 500 to 5000 nM

CNCCC(Oc1cccc(-n2nc3c(N(C)C)nnc(C)c3c2C)c1)c1cccc(F)c1 (centres unmarked) [Example 5, 2-(3-(1-(3-fluorophenyl)-3-(methylamino)propoxy)phenyl)-N,N,3,4-tetramethyl-2H-pyrazolo[3,4-d]pyridazin-7-amine]
Ki [1]: < 100 nM | Ki [2]: 500 to 5000 nM

CNc1nnc(C)c2c(C)n(-c3cccc(OC(CCN)c4ccccc4F)c3)nc12 (centres unmarked) [Example 23, 2-(3-(3-amino-1-(2-fluorophenyl)propoxy)phenyl)-N,3,4-trimethyl-2H-pyrazolo[3,4-d]pyridazin-7-amine]
Ki [1]: 100 to 500 nM | Ki [2]: 500 to 5000 nM

CNCCC(Oc1cccc(-n2nc3c(N)nnc(C)c3c2C)c1)c1ccccc1F (centres unmarked) [Example 26, 2-(3-(1-(2-fluorophenyl)-3-(methylamino)propoxy)phenyl)-3,4-dimethyl-2H-pyrazolo[3,4-d]pyridazin-7-amine]
Ki [1]: 100 to 500 nM | Ki [2]: 500 to 5000 nM

CNCCC(Oc1cccc(-n2c(C)c3c(C)nnc(C)c3c2C)c1)c1cccc(F)c1 (centres unmarked) [Example 67, 3-(3-fluorophenyl)-N-methyl-3-(3-(1,4,5,7-tetramethyl-6H-pyrrolo[3,4-d]pyridazin-6-yl)phenoxy)propan-1-amine]
Ki [1]: 100 to 500 nM | Ki [2]: 500 to 5000 nM

CNCCC(Oc1cccc(-n2nc3c(N(C)CCCO)nnc(C)c3c2C)c1)c1ccccc1F (centres unmarked) [Example 32, 3-((2-(3-(1-(2-fluorophenyl)-3-(methylamino)propoxy)phenyl)-3,4-dimethyl-2H-pyrazolo[3,4-d]pyridazin-7-yl)(methyl)amino)propan-1-ol]
Ki [1]: < 100 nM | Ki [2]: 500 to 5000 nM

CNCC(Oc1cccc(-n2nc3c(N(C)C)nnc(C)c3c2C)c1)c1ccccc1F (centres unmarked) [Example 41, 2-(3-(1-(2-fluorophenyl)-2-(methylamino)ethoxy)phenyl)-N,N,3,4-tetramethyl-2H-pyrazolo[3,4-d]pyridazin-7-amine]
Ki [1]: 100 to 500 nM | Ki [2]: 500 to 5000 nM

CNCC[C@H](Oc1cccc(-n2nc3c(N(C)C)nnc(C)c3c2C)c1)c1ccccc1 [Example 58, (S)-N,N,3,4-Tetramethyl-2-(3-(3-(methylamino)-1-phenylpropoxy)phenyl)-2H-pyrazolo[3,4-d]pyridazin-7-amine]
Ki [1]: < 100 nM | Ki [2]: 500 to 5000 nM

Cc1nnc(N(C)C)c2nn(-c3cccc(OC(CCN)c4ccccc4)c3)c(C)c12 (centres unmarked) [Example 4, 2-(3-(3-amino-1-phenylpropoxy)phenyl)-N,N,3,4-tetramethyl-2H-pyrazolo[3,4-d]pyridazin-7-amine]
Ki [1]: 100 to 500 nM | Ki [2]: 500 to 5000 nM

Cc1nnc(N(C)C)c2nn(-c3cccc(OC(CCN)c4cccnc4)c3)c(C)c12 (centres unmarked) [Example 50, 2-(3-(3-amino-1-(pyridin-3-yl)propoxy)phenyl)-N,N,3,4-tetramethyl-2H-pyrazolo[3,4-d]pyridazin-7-amine]
Ki [1]: ≥ 1000 nM | Ki [2]: 500 to 5000 nM

CNCCC(Oc1cccc(-n2nc3c(N(C)CCO)nnc(C)c3c2C)c1)c1ccccc1F (centres unmarked) [Example 31, 2-((2-(3-(1-(2-fluorophenyl)-3-(methylamino)propoxy)phenyl)-3,4-dimethyl-2H-pyrazolo[3,4-d]pyridazin-7-yl)(methyl)amino)ethanol]
Ki [1]: < 100 nM | Ki [2]: 500 to 5000 nM

CNCCC(Oc1cccc(-n2nc3c(N(C)C)nnc(C)c3c2C)c1)c1cc(F)cc(F)c1 (centres unmarked) [Example 18, 2-(3-(1-(3,5-difluorophenyl)-3-(methylamino)propoxy)phenyl)-N,N,3,4-tetramethyl-2H-pyrazolo[3,4-d]pyridazin-7-amine]
Ki [1]: 100 to 500 nM | Ki [2]: 500 to 5000 nM

CNCCCC(Oc1cccc(-n2nc3c(N(C)C)nnc(C)c3c2C)c1)c1ccccc1 (centres unmarked) [Example 6, N,N,3,4-tetramethyl-2-(3-(4-(methylamino)-1-phenylbutoxy)phenyl)-2H-pyrazolo[3,4-d]pyridazin-7-amine]
Ki [1]: 100 to 500 nM | Ki [2]: 500 to 5000 nM

CNCCC(Oc1cccc(-n2nc3c(N4CC(OC)C4)nnc(C)c3c2C)c1)c1ccccc1F (centres unmarked) [Example 33, 3-(2-fluorophenyl)-3-(3-(7-(3-methoxyazetidin-1-yl)-3,4-dimethyl-2H-pyrazolo[3,4-d]pyridazin-2-yl)phenoxy)-N-methylpropan-1-amine]
Ki [1]: 500 to 1000 nM | Ki [2]: 500 to 5000 nM

Cc1nnc(N(C)C)c2nn(-c3cccc(OCC4CCN(CCc5ccccc5)CC4)c3)c(C)c12 [Example 53, N,N,3,4-Tetramethyl-2-(3-((1-phenethylpiperidin-4-yl)methoxy)phenyl)-2H-pyrazolo[3,4-d]pyridazin-7-amine]
Ki [1]: 100 to 500 nM | Ki [2]: 500 to 5000 nM

CNCC[C@H](Oc1cccc(-n2nc3c(N(C)C)nnc(C)c3c2C)c1)c1ccccc1F [Example 63, (S)-2-(3-(1-(2-fluorophenyl)-3-(methylamino)propoxy)phenyl)-N,N,3,4-tetramethyl-2H-pyrazolo[3,4-d]pyridazin-7-amine]
Ki [1]: < 100 nM | Ki [2]: 500 to 5000 nM
